According to ChEMBL document CHEMBL4507274 (2021):
Activity calls are given as the source filed them. No cut-off for these calls is given here.

Experiments:
[1] = target: Protein kinase C delta type (Homo sapiens) (UniProt Q05655); test: PKCdelta (h) Upstate kinase activity assay; conditions: Compound concentration 10.0 uM
[2] = target: Serine/threonine-protein kinase pim-1 (Homo sapiens) (UniProt P11309); test: Pim-1 (h) Upstate kinase activity assay; conditions: Compound concentration 10.0 uM
Serine/threonine-protein kinase pim-1 (Homo sapiens), sequence (P11309 whole entry, looked up): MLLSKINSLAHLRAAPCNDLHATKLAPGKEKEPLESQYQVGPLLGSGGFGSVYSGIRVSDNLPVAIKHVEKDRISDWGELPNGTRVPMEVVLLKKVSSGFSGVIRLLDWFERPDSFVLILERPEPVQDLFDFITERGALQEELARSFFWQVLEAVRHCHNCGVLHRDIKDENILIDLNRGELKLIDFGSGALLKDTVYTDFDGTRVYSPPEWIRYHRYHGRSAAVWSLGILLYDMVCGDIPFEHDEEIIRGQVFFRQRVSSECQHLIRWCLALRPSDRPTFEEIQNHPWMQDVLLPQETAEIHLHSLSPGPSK

[3] = target: T1, Protein kinase C epsilon type (Homo sapiens) (UniProt Q02156); test: PKCepsilon (h) Upstate kinase activity assay; conditions: Compound concentration 10.0 uM
T1 sequence (whole entry): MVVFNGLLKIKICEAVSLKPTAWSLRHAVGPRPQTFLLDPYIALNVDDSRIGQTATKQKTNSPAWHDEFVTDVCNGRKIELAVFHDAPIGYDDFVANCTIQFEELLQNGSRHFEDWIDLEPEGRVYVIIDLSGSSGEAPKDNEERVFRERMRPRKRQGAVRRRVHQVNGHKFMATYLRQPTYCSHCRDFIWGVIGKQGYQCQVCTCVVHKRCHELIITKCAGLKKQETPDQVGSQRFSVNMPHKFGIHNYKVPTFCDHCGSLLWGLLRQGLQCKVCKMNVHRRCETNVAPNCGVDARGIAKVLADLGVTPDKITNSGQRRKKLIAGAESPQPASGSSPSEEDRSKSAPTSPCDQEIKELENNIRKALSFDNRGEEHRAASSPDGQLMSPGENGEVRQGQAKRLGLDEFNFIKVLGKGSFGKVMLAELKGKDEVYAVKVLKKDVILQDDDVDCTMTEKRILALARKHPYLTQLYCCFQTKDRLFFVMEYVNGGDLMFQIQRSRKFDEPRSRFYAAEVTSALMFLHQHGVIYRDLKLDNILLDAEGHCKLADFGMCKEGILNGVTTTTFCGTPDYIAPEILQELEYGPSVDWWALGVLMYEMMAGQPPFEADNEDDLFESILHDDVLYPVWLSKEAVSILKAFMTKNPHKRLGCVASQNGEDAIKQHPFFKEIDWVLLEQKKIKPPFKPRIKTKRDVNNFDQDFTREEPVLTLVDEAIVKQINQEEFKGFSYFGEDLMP

[4] = target: Platelet-derived growth factor receptor alpha (Homo sapiens) (UniProt P16234); test: PDGFRalpha (h) Upstate kinase activity assay; conditions: Compound concentration 10.0 uM
Platelet-derived growth factor receptor alpha (Homo sapiens), sequence (P16234 whole entry): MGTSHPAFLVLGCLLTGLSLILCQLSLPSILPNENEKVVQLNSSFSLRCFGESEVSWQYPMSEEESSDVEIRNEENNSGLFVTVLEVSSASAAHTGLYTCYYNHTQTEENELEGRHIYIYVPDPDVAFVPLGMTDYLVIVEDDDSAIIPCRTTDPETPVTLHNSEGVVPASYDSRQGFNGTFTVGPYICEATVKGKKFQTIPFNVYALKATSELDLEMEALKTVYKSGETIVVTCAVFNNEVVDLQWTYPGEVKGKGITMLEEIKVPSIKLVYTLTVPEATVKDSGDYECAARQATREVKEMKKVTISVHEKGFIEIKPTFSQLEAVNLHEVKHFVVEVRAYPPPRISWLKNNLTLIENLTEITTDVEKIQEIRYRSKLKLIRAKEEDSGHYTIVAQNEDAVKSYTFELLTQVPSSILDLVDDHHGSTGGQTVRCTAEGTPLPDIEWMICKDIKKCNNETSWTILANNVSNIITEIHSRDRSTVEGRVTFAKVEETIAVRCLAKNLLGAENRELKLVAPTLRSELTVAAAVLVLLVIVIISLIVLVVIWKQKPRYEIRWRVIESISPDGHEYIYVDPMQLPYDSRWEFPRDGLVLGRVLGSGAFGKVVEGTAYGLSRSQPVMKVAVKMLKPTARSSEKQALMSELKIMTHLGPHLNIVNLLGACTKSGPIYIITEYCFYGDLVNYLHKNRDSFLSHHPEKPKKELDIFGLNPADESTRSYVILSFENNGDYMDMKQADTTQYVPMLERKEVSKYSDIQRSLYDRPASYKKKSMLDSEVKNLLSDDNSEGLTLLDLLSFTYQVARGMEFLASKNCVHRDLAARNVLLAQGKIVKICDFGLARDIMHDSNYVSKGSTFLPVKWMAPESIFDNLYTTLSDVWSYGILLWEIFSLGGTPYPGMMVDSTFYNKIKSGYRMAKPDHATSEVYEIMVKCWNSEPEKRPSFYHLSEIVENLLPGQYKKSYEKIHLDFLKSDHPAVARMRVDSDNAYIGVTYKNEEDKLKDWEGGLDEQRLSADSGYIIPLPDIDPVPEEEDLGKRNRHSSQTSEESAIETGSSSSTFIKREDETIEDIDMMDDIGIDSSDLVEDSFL

[5] = Mechanistic tissue assay (arteria saphena rabbit); format: tissue-based, Oryctolagus cuniculus, Saphenous artery
[6] = system: HepG2; test: Liver HepG2 cell line MDS Pharma Services Proliferation Assay; format: functional, cell-based, Homo sapiens
[7] = system: ACHN; test: Kidney ACHN cell line MDS Pharma Services Proliferation Assay; format: functional, cell-based, Homo sapiens
[8] = target: CDK7/Cyclin H/MNAT1 (Homo sapiens) (UniProt P51946+P50613+P51948); test: CDK7/ cyclin H/ MATI (h) Upstate kinase activity assay; format: protein-complex assay; conditions: Compound concentration 10.0 uM
[9] = target: Cyclin-dependent kinase 3 (Homo sapiens) (UniProt Q00526); test: CDK3/ cyclin E (h) Upstate kinase activity assay; conditions: Compound concentration 10.0 uM
Cyclin-dependent kinase 3 (Homo sapiens), sequence (Q00526 whole entry, looked up): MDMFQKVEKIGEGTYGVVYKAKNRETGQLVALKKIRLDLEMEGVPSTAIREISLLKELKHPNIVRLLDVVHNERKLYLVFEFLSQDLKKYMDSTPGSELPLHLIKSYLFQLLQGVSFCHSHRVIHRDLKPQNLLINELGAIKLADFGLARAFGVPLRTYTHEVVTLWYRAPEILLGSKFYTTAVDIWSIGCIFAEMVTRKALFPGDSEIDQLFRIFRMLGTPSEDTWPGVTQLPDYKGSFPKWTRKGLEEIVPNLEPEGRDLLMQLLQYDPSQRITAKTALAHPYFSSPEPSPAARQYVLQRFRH

[10] = target: Mitogen-activated protein kinase 8 (Homo sapiens) (UniProt P45983); test: JNK1alpha1 (h) Upstate kinase activity assay; conditions: Compound concentration 10.0 uM
Mitogen-activated protein kinase 8 (Homo sapiens), sequence (P45983 whole entry): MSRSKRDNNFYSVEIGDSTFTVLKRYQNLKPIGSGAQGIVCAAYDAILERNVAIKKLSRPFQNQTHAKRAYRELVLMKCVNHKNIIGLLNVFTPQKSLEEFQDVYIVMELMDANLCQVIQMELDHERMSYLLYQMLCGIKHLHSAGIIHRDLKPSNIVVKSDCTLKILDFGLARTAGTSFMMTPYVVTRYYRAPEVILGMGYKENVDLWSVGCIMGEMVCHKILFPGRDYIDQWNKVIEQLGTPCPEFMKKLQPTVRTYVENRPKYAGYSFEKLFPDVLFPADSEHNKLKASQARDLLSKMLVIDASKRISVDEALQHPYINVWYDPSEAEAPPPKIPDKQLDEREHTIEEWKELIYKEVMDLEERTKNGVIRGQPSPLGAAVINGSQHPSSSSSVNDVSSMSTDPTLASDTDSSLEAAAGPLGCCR

[11] = target: RAF proto-oncogene serine/threonine-protein kinase (Homo sapiens) (UniProt P04049); test: c-RAF (h) Upstate kinase activity assay; conditions: Compound concentration 10.0 uM
[12] = target: Receptor-type tyrosine-protein kinase FLT3 (Homo sapiens) (UniProt P36888); conditions: Compound concentration 10.0 uM
[13] = target: Hepatocyte growth factor receptor (Homo sapiens) (UniProt P08581); test: Met (h) Upstate kinase activity assay; conditions: Compound concentration 10.0 uM
Hepatocyte growth factor receptor (Homo sapiens), sequence (P08581 whole entry): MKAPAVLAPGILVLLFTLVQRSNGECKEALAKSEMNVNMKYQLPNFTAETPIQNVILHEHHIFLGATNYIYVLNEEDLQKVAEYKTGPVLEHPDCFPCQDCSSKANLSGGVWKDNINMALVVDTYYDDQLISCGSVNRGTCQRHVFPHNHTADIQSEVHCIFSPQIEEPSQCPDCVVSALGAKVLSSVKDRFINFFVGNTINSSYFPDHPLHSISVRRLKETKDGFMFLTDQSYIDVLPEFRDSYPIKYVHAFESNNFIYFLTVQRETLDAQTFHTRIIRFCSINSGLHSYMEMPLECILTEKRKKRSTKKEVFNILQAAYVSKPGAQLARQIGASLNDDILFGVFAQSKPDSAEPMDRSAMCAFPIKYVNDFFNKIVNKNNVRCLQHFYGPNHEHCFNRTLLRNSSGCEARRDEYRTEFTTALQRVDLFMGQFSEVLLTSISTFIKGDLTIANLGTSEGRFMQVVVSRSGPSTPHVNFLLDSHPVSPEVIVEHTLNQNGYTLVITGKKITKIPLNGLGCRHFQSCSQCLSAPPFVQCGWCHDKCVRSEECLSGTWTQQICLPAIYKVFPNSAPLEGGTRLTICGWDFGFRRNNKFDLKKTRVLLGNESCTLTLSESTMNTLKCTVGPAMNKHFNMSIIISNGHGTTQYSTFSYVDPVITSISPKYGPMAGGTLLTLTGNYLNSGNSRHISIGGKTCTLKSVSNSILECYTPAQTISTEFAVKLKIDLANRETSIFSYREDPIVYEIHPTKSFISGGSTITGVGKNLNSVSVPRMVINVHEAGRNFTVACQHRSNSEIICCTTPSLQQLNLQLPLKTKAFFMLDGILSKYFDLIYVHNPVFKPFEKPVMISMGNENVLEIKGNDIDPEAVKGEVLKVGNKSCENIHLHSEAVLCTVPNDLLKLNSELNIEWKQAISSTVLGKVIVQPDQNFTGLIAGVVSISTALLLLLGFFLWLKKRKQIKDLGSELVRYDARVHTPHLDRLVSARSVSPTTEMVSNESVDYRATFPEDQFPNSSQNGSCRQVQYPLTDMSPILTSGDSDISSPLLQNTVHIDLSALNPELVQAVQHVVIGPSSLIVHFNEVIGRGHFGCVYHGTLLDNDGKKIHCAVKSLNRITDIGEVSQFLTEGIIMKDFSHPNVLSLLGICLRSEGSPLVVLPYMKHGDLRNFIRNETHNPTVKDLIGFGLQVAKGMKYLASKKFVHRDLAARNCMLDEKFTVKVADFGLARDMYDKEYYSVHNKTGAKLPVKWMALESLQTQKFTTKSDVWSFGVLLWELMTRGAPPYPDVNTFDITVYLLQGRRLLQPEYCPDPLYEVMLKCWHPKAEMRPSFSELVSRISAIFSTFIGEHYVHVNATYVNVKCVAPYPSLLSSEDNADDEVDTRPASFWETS

[14] = system: U-937; test: Lymphoma U937 cell line MDS Pharma Services Proliferation Assay; format: functional, cell-based, Homo sapiens
[15] = system: MIA PaCa-2; test: Pancreas MIA PaCa-2 cell line MDS Pharma Services Proliferation Assay; format: functional, cell-based, Homo sapiens
[16] = system: K562; test: Leukemia K562 cell line MDS Pharma Services Proliferation Assay; format: functional, cell-based, Homo sapiens
[17] = target: T2, Mitogen-activated protein kinase 13 (Homo sapiens) (UniProt O15264); test: SAPK4 (h) Upstate kinase activity assay; conditions: Compound concentration 10.0 uM
T2 sequence (whole entry): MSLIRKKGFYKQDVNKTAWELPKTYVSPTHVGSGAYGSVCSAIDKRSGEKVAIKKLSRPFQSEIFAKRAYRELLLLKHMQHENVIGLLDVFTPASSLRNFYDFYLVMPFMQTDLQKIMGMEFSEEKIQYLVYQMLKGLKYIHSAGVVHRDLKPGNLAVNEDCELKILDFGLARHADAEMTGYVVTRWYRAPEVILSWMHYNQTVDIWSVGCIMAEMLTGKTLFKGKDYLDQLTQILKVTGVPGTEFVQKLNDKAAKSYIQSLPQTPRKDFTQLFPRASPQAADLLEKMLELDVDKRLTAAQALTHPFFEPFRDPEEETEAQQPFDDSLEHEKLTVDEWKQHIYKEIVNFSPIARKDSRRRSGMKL

[18] = Lung NCI-1-1460 cell line MDS Pharma Services Proliferation Assay; format: functional, cell-based, Homo sapiens
[19] = target: Mitogen-activated protein kinase 1 (Mus musculus) (UniProt P63085); test: MAPK2 (m) Upstate kinase activity assay; conditions: Compound concentration 10.0 uM
[20] = target: Alpha-1D adrenergic receptor (Homo sapiens) (UniProt P25100); conditions: Compound concentration 10.0 uM
Alpha-1D adrenergic receptor (Homo sapiens), sequence (P25100 whole entry): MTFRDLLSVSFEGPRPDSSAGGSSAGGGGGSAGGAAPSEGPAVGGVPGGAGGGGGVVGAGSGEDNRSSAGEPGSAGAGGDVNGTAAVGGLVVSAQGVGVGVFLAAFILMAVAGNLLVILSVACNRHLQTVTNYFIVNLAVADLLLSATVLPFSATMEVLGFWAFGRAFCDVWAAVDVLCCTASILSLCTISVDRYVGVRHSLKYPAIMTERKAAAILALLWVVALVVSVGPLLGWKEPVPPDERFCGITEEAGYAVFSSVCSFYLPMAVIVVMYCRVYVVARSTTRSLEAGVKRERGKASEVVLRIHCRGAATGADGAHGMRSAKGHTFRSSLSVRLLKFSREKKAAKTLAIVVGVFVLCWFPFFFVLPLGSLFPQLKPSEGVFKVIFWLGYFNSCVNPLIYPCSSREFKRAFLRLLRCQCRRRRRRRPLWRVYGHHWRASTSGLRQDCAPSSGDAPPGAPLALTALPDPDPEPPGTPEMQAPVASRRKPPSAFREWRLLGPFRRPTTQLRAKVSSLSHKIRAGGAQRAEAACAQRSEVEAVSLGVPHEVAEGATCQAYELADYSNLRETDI

Protein kinase C delta type (Homo sapiens), sequence (Q05655 whole entry, looked up): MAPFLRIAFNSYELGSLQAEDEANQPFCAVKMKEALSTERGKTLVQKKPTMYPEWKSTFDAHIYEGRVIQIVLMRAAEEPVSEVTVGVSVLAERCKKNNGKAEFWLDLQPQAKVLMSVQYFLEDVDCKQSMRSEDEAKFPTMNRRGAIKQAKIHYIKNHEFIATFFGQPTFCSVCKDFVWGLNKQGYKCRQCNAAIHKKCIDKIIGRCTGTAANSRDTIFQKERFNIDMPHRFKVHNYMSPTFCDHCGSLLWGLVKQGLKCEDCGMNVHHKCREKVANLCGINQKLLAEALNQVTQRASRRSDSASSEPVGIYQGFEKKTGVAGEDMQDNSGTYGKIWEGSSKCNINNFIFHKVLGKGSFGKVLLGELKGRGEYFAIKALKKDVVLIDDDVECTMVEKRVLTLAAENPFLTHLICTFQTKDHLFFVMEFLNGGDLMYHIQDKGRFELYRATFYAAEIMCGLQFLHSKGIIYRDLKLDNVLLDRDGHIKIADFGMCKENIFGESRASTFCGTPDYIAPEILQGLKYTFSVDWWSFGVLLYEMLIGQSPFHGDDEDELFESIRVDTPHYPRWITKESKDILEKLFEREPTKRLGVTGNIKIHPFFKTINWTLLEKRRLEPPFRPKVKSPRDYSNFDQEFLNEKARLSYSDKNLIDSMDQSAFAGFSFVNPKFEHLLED

SMILES: Cc1c[nH]c2nccc(Oc3c(F)cc(Nc4cc(Cl)nc(N)n4)cc3F)c12 [BAY-549]
- inhibition [1]: 16%
- inhibition [2]: 20%
- inhibition [3]: 28%
- inhibition [4]: 3%
- IC50 [5]: 0.065 µM (active)
- IC50 ([6]; Homo sapiens, HepG2): 3.1 µM
- TGI ([6]; Homo sapiens, HepG2): 54 µM
- CC50 ([6]; Homo sapiens, HepG2, read-out: LC50 (the source's name)): > 100 µM
- Mean % growth (n = 2) for 1.0 µM probe concentration ([6]; ± SEM 2 % growth): 62%
- Mean % growth (n = 2) for 0.01 µM probe concentration ([6]; ± SEM 4 % growth): 101%
- Mean % growth (n = 2) for 10.0 µM probe concentration ([6]; ± SEM 4 % growth): 18%
- Mean % growth (n = 2) for 0.1 µM probe concentration ([6]; ± SEM 6 % growth): 95%
- Mean % growth (n = 2) for 100.0 µM probe concentration ([6]; ± SEM 6 % growth): -3%
- Mean % growth (n = 2) for 10.0 µM probe concentration [7]: 27%
- IC50 ([7]; Homo sapiens, ACHN): 3.6 µM
- TGI ([7]; Homo sapiens, ACHN): 32 µM
- CC50 ([7]; Homo sapiens, ACHN, read-out: LC50 (the source's name)): > 100 µM
- Mean % growth (n = 2) for 0.01 µM probe concentration ([7]; ± SEM 1 % growth): 103%
- Mean % growth (n = 2) for 0.1 µM probe concentration ([7]; ± SEM 2 % growth): 106%
- Mean % growth (n = 2) for 100.0 µM probe concentration ([7]; ± SEM 4 % growth): -25%
- Mean % growth (n = 2) for 1.0 µM probe concentration ([7]; ± SEM 10 % growth): 60%
- inhibition [8]: 57%
- inhibition [9]: 33%
- inhibition [10]: 22%
- inhibition [11]: 76%
- inhibition [12]: 98%
- inhibition [13]: 82%
- IC50 ([14]; Homo sapiens, U-937): 14 µM
- TGI ([14]; Homo sapiens, U-937): > 100 µM
- CC50 ([14]; Homo sapiens, U-937, read-out: LC50 (the source's name)): > 100 µM
- Mean % growth (n = 2) for 0.01 µM probe concentration ([14]; ± SEM 1 % growth): 101%
- Mean % growth (n = 2) for 0.1 µM probe concentration ([14]; ± SEM 2 % growth): 103%
- Mean % growth (n = 2) for 1.0 µM probe concentration ([14]; ± SEM 2 % growth): 104%
- Mean % growth (n = 2) for 100.0 µM probe concentration ([14]; ± SEM 5 % growth): 17%
- Mean % growth (n = 2) for 10.0 µM probe concentration ([14]; ± SEM 7 % growth): 56%
- Mean % growth (n = 2) for 10.0 µM probe concentration [15]: 45%
- IC50 ([15]; Homo sapiens, MIA PaCa-2): 8.9 µM
- TGI ([15]; Homo sapiens, MIA PaCa-2): 48 µM
- CC50 ([15]; Homo sapiens, MIA PaCa-2, read-out: LC50 (the source's name)): > 100 µM
- Mean % growth (n = 2) for 0.1 µM probe concentration ([15]; ± SEM 1 % growth): 98%
- Mean % growth (n = 2) for 0.01 µM probe concentration ([15]; ± SEM 3 % growth): 95%
- Mean % growth (n = 2) for 1.0 µM probe concentration ([15]; ± SEM 3 % growth): 88%
- Mean % growth (n = 2) for 100.0 µM probe concentration ([15]; ± SEM 5 % growth): -23%
- IC50 ([16]; Homo sapiens, K562): 8.3 µM
- TGI ([16]; Homo sapiens, K562): > 100 µM
- CC50 ([16]; Homo sapiens, K562, read-out: LC50 (the source's name)): > 100 µM
- Mean % growth (n = 2) for 10.0 µM probe concentration ([16]; ± SEM 3 % growth): 42%
- Mean % growth (n = 2) for 1.0 µM probe concentration ([16]; ± SEM 4 % growth): 69%
- Mean % growth (n = 2) for 0.1 µM probe concentration ([16]; ± SEM 5 % growth): 92%
- Mean % growth (n = 2) for 100.0 µM probe concentration ([16]; ± SEM 6 % growth): 32%
- Mean % growth (n = 2) for 0.01 µM probe concentration ([16]; ± SEM 7 % growth): 95%
- inhibition [17]: 16%
- TGI ([18]; Homo sapiens, Lung NCI-1-1460): 11 µM
- CC50 ([18]; Homo sapiens, Lung NCI-1-1460, read-out: LC50 (the source's name)): > 100 µM
- Mean % growth (n = 2) for 0.01 µM probe concentration ([18]; ± SEM 1 % growth): 98%
- Mean % growth (n = 2) for 10.0 µM probe concentration ([18]; ± SEM 1 % growth): 2%
- Mean % growth (n = 2) for 1.0 µM probe concentration ([18]; ± SEM 2 % growth): 50%
- Mean % growth (n = 2) for 0.1 µM probe concentration ([18]; ± SEM 3 % growth): 82%
- Mean % growth (n = 2) for 100.0 µM probe concentration ([18]; ± SEM 12 % growth): -45%
- inhibition [19]: 21%

SMILES: Cn1cc(Cl)c2c(Oc3c(F)cc(Nc4cc(Cl)nc(N)n4)cc3F)ccnc21 [BAY-4900]
- inhibition [20]: -6.73%
